Target: Aβ42 (Homo sapiens, UniProt P05067)
Experiment: Th-T (thioflavin-T) assay of Aβ42 aggregation
Assay type: biochemical
Conditions: for Th-T fluorescence, mean of three wells: Aβ42 aggregation time course

Aβ42, sequence (P05067 672-713): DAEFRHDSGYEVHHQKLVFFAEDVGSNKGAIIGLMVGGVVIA

C=C1CC[C@@H]2[C@](C)(CC[C@H]3O[C@H](C=C(C)C)C[C@@]23C)[C@@H]1Cc1c(OC)oc(CO)c(C(=O)OC)c1=O [Compound 21]
first Th-T assay result (Aβ42 (10 μM) ± DPPs (20 μM), room temperature): clearly delayed nuclei formation of Aβ42
Th-T fluorescence, mean of three wells (reading M117): 1.039
Th-T fluorescence, mean of three wells (reading M118): 1.038
Th-T fluorescence, mean of three wells (reading M119): 1.047
Th-T fluorescence, mean of three wells (reading M120): 1.046
Th-T fluorescence, mean of three wells (reading M121): 1.028
Th-T fluorescence, mean of three wells (reading M122): 1.042
Th-T fluorescence, mean of three wells (reading M123): 1.04
Th-T fluorescence, mean of three wells (reading M124): 1.043
Th-T fluorescence, mean of three wells (reading M125): 1.031
Th-T fluorescence, mean of three wells (reading M126): 1.048
Th-T fluorescence, mean of three wells (reading M127): 1.027
Th-T fluorescence, mean of three wells (reading M128): 1.04
Th-T fluorescence, mean of three wells (reading M129): 1.041
Th-T fluorescence, mean of three wells (reading M130): 1.048
nucleation phase of Aβ42 delayed until (Th-T fluorescence of Aβ42 alone began to increase after 4 h): 13 h
Th-T fluorescence, mean of three wells (Fig. 7a) (column suffix _10, measurement M19): 0.2262
Th-T fluorescence, mean of three wells (Fig. 7a) (column suffix _10, measurement M20): 0.2276
Th-T fluorescence, mean of three wells (Fig. 7a) (column suffix _10, measurement M21): 0.2311
Th-T fluorescence, mean of three wells (Fig. 7a) (column suffix _10, measurement M22): 0.2318
Th-T fluorescence, mean of three wells (Fig. 7a) (column suffix _10, measurement M23): 0.2319
Th-T fluorescence, mean of three wells (Fig. 7a) (column suffix _10, measurement M24): 0.2323
Th-T fluorescence, mean of three wells (Fig. 7a) (column suffix _10, measurement M25): 0.2332
Th-T fluorescence, mean of three wells (Fig. 7a) (column suffix _10, measurement M26): 0.2371
Th-T fluorescence, mean of three wells (Fig. 7a) (column suffix _10, measurement M27): 0.238
Th-T fluorescence, mean of three wells (Fig. 7a) (column suffix _10, measurement M28): 0.2386
Th-T fluorescence, mean of three wells (Fig. 7a) (column suffix _10, measurement M29): 0.2373
Th-T fluorescence, mean of three wells (Fig. 7a) (column suffix _10, measurement M30): 0.2428
Th-T assay signal, mean of three wells (Fig. 7a) (column suffix _10, reading M1): 0.2407
Th-T assay signal, mean of three wells (Fig. 7a) (column suffix _10, reading M2): 0.2463
Th-T assay signal, mean of three wells (Fig. 7a) (column suffix _10, reading M3): 0.2449
Th-T assay signal, mean of three wells (Fig. 7a) (column suffix _10, reading M4): 0.2384
Th-T assay signal, mean of three wells (Fig. 7a) (column suffix _10, reading M5): 0.2363
Th-T assay signal, mean of three wells (Fig. 7a) (column suffix _10, reading M6): 0.2279
Th-T assay signal, mean of three wells (Fig. 7a) (column suffix _10, reading M7): 0.2237
Th-T assay signal, mean of three wells (Fig. 7a) (column suffix _10, reading M8): 0.2225
Th-T assay signal, mean of three wells (Fig. 7a) (column suffix _10, reading M9): 0.2211
Th-T assay signal, mean of three wells (Fig. 7a) (column suffix _10, reading M10): 0.2184
Th-T assay signal, mean of three wells (Fig. 7a) (column suffix _10, reading M11): 0.2174
Th-T assay signal, mean of three wells (Fig. 7a) (column suffix _10, reading M12): 0.2206
Th-T assay signal, mean of three wells (Fig. 7a) (column suffix _10, reading M13): 0.2193
Th-T assay signal, mean of three wells (Fig. 7a) (column suffix _10, reading M14): 0.2201
Th-T assay signal, mean of three wells (Fig. 7a) (column suffix _10, reading M15): 0.222
Th-T assay signal, mean of three wells (Fig. 7a) (column suffix _10, reading M16): 0.2237
Th-T assay signal, mean of three wells (Fig. 7a) (column suffix _10, reading M17): 0.228
Th-T assay signal, mean of three wells (Fig. 7a) (column suffix _10, reading M18): 0.2253
Fig. 7a Th-T reading, mean of three wells (column suffix _10, reading M85): 1.478
Fig. 7a Th-T reading, mean of three wells (column suffix _10, reading M86): 1.509
Fig. 7a Th-T reading, mean of three wells (column suffix _10, reading M87): 1.557
Fig. 7a Th-T reading, mean of three wells (column suffix _10, reading M88): 1.549
Fig. 7a Th-T reading, mean of three wells (column suffix _10, reading M89): 1.5658
Fig. 7a Th-T reading, mean of three wells (column suffix _10, reading M90): 1.591
Fig. 7a Th-T reading, mean of three wells (column suffix _10, reading M91): 1.5663
Fig. 7a Th-T reading, mean of three wells (column suffix _10, reading M92): 1.592
Fig. 7a Th-T reading, mean of three wells (column suffix _10, reading M93): 1.631
Fig. 7a Th-T reading, mean of three wells (column suffix _10, reading M94): 1.598
Fig. 7a Th-T reading, mean of three wells (column suffix _10, reading M95): 1.661
Fig. 7a Th-T reading, mean of three wells (column suffix _10, reading M96): 1.586
Fig. 7a Th-T reading, mean of three wells (column suffix _10, reading M97): 1.595
Fig. 7a Th-T reading, mean of three wells (column suffix _10, reading M98): 1.638
Fig. 7a Th-T reading, mean of three wells (column suffix _10, reading M99): 1.631
Fig. 7a Th-T reading, mean of three wells (column suffix _10, reading M100): 1.623
Fig. 7a Th-T reading, mean of three wells (column suffix _10, reading M101): 1.644
Fig. 7a Th-T reading, mean of three wells (column suffix _10, reading M102): 1.607
Fig. 7a Th-T reading, mean of three wells (column suffix _10, reading M103): 1.621
Fig. 7a Th-T reading, mean of three wells (column suffix _10, reading M104): 1.621
Fig. 7a Th-T reading, mean of three wells (column suffix _10, reading M105): 1.667
Fig. 7a Th-T reading, mean of three wells (column suffix _10, reading M106): 1.671
Th-T fluorescence, mean of three wells (Fig. 7a) (column suffix _20, measurement M19): 0.1942
Th-T fluorescence, mean of three wells (Fig. 7a) (column suffix _20, measurement M20): 0.198
Th-T fluorescence, mean of three wells (Fig. 7a) (column suffix _20, measurement M21): 0.1975
Th-T fluorescence, mean of three wells (Fig. 7a) (column suffix _20, measurement M22): 0.1979
Th-T fluorescence, mean of three wells (Fig. 7a) (column suffix _20, measurement M23): 0.1984
Th-T fluorescence, mean of three wells (Fig. 7a) (column suffix _20, measurement M24): 0.2012
Th-T fluorescence, mean of three wells (Fig. 7a) (column suffix _20, measurement M25): 0.2016
Th-T fluorescence, mean of three wells (Fig. 7a) (column suffix _20, measurement M26): 0.2021
Th-T fluorescence, mean of three wells (Fig. 7a) (column suffix _20, measurement M27): 0.2014
Th-T fluorescence, mean of three wells (Fig. 7a) (column suffix _20, measurement M28): 0.2017
Th-T fluorescence, mean of three wells (Fig. 7a) (column suffix _20, measurement M29): 0.2027
Th-T assay signal, mean of three wells (Fig. 7a) (column suffix _20, reading M1): 0.2262
Th-T assay signal, mean of three wells (Fig. 7a) (column suffix _20, reading M2): 0.223
Th-T assay signal, mean of three wells (Fig. 7a) (column suffix _20, reading M3): 0.2155
Th-T assay signal, mean of three wells (Fig. 7a) (column suffix _20, reading M4): 0.2051
Th-T assay signal, mean of three wells (Fig. 7a) (column suffix _20, reading M5): 0.2019
Th-T assay signal, mean of three wells (Fig. 7a) (column suffix _20, reading M6): 0.1953
Th-T assay signal, mean of three wells (Fig. 7a) (column suffix _20, reading M7): 0.1945
Th-T assay signal, mean of three wells (Fig. 7a) (column suffix _20, reading M8): 0.1954
Th-T assay signal, mean of three wells (Fig. 7a) (column suffix _20, reading M9): 0.1943
Th-T assay signal, mean of three wells (Fig. 7a) (column suffix _20, reading M10): 0.1989
Th-T assay signal, mean of three wells (Fig. 7a) (column suffix _20, reading M11): 0.1963
Th-T assay signal, mean of three wells (Fig. 7a) (column suffix _20, reading M12): 0.198
Th-T assay signal, mean of three wells (Fig. 7a) (column suffix _20, reading M13): 0.1957
Th-T assay signal, mean of three wells (Fig. 7a) (column suffix _20, reading M14): 0.1953
Th-T assay signal, mean of three wells (Fig. 7a) (column suffix _20, reading M15): 0.1958
Th-T assay signal, mean of three wells (Fig. 7a) (column suffix _20, reading M16): 0.1968
Th-T assay signal, mean of three wells (Fig. 7a) (column suffix _20, reading M17): 0.1967
Th-T assay signal, mean of three wells (Fig. 7a) (column suffix _20, reading M18): 0.1963
Fig. 7a Th-T reading, mean of three wells (column suffix _20, reading M85): 0.5666
Fig. 7a Th-T reading, mean of three wells (column suffix _20, reading M86): 0.5976
Fig. 7a Th-T reading, mean of three wells (column suffix _20, reading M87): 0.6445
Fig. 7a Th-T reading, mean of three wells (column suffix _20, reading M88): 0.6876
Fig. 7a Th-T reading, mean of three wells (column suffix _20, reading M89): 0.7312
Fig. 7a Th-T reading, mean of three wells (column suffix _20, reading M90): 0.7695
Fig. 7a Th-T reading, mean of three wells (column suffix _20, reading M91): 0.7994
Fig. 7a Th-T reading, mean of three wells (column suffix _20, reading M92): 0.8356
Fig. 7a Th-T reading, mean of three wells (column suffix _20, reading M93): 0.8329
Fig. 7a Th-T reading, mean of three wells (column suffix _20, reading M94): 0.8638
Fig. 7a Th-T reading, mean of three wells (column suffix _20, reading M95): 0.8786
Fig. 7a Th-T reading, mean of three wells (column suffix _20, reading M96): 0.9004
Fig. 7a Th-T reading, mean of three wells (column suffix _20, reading M97): 0.8843
Fig. 7a Th-T reading, mean of three wells (column suffix _20, reading M98): 0.903
Fig. 7a Th-T reading, mean of three wells (column suffix _20, reading M99): 0.9153
Fig. 7a Th-T reading, mean of three wells (column suffix _20, reading M100): 0.9048

From article PMC7156458, “Synthetic biology based construction of biological activity-related library of fungal decalin-containing diterpenoid pyrones” (Nature Communications, 2020)
